Laboratory results reported in US20260021092A1, “STRUCTURE-BASED DESIGN OF A NOVEL CLASS OF DRUGS FOR NEURODEGENERATIVE DISEASE” (The Regents of the University of California, priority 2022, published 2026).
Entries after “also recorded” stand apart in the source; their conditions may differ.

Key:
[1] = tested on: Neuro-2a (N2a) neuronal cells; test: MTT cell viability assay of N2a cells treated with alpha-synuclein fibrils; type: cell-based; settings: final alpha-synuclein fibril concentration of 1 μM, various compound concentrations
Experimental: Alpha-synuclein aggregates, particularly oligomers, are known to be cytotoxic to neurons^4. Thus, we next determined if disaggregation of alpha-synuclein aggregates by our compounds mitigates their cytotoxicity. […] The fibril and compound mixtures were then added to cultured Neuro-2a (N2a) neuronal cells, to a final alpha-synuclein fibril concentration of 1 μM.
All experiments were performed in triplicate. […] Removal from the incubator and replacement of well media with 100 μL of 100% DMSO halted the assay. Absorbance was measured at 570 nm using a SpectraMax M5 reader. A background reading at 700 nm was subtracted from the 570 nm reading. Well readings were normalized to vehicle alone treated cells (designated as 100% viable) and cells treated with 100% DMSO (designated as 0% viable).

[2] = biological target: α-synuclein fibrils (Homo sapiens, UniProt P37840); test: Table A function: disaggregators of amyloid fibrils (alpha-synuclein)
[3] = tested on: AD brain-derived tau fibrils; test: Dot blot of AD tau aggregates with antibody GT38 during EGCG incubation; type: biochemical, human; settings: EGCG incubation 1, 3, 6 and 24 hours at 37°
Experimental: Brain-derived tau PHFs were incubated with 80 μM EGCG at 37° C. in PBS various lengths of time. Samples were spotted onto nitrocellulose membrane, 20 μL were spotted for each condition, spotting 2 μL at a time and allowing to dry in between. Membrane was blocked for 1 hour in TBST with 5% milk and washed with TBST three times. Membrane was then incubated with primary antibody (either anti-tau GT38 (obtained from Virginia Lee lab at UPenn) or anti-phospho-tau AT8 (cat #MN1020, lot #UL2906281Z), 1:4000 dilution in 2% milk/TBST solution) for 1 hour, washed three times with TBST, incubated with horseradish peroxidase-conjugated secondary antibody (goat anti-mouse IgG H and L (HRP); 1:5000 Dilution in 2% milk/TBST), and washed three times in TBST. Signal was detected with Pierce ECL Plus Western Blotting Substrate (cat #32132), and blot was imaged with a Pharos FX Plus Molecular Imager.

[4] = tested on: AD brain-derived tau fibrils; test: Negative-stain EM and quantitative EM (qEM) of tau fibrils after compound incubation
Experimental: We then scrutinized the four CNS-Set inhibitors by quantitative EM (qEM) imaging (FIG. 3c, see Methods).
Negatively stained EM Grids were prepared by depositing 6 μl of sample on formvar/carbon coated copper grids (400 mesh) for 3 min with. Sample was rapidly wicked using filter paper without drying the grid, and stained with 1% uranyl acetate for 2 min. […] Fibrils were counted from collections of 33 micrographs (in triplicate) for each experimental condition.

With `Cc1cc(C)c(NC(=O)Cn2nc3c4c(cccc4c2=O)-c2ccccc2-3)c(C)c1` [CNS-11, N-mesityl-2-(3-oxoindeno[1,2,3-de]phthalazin-2(3H)-yl)acetamide] the “rescue of alpha-synuclein fibril cytotoxicity” value [1] was “no rescue of toxicity at any concentration; also recorded: unable to rescue”.

`Cc1cccc(C)c1NC(=O)Cn1nc(Cc2ccccc2)c2ccccc2c1=O` [CNS-11g, 2-(4-benzyl-1-oxophthalazin-2-yl)-N-(2,6-dimethylphenyl)acetamide] was tested, and the Function [2] was “Dissociate α- synuclein fibrils”.

`O=C(O[C@@H]1Cc2c(O)cc(O)cc2O[C@@H]1c1cc(O)c(O)c(O)c1)c1cc(O)c(O)c(O)c1` [EGCG, epigallocatechin gallate] was tested, and the “time at which reduction in GT38-positive tau aggregate level begins” value [3] was 1 to 3 h, the “appearance of fibrils in negative stain electron micrographs” value ([4]; 3-hour EGCG incubation) was “largely intact but somewhat swollen” and the “appearance of fibrils in negative stain electron micrographs” value ([4]; 24 hours of EGCG incubation) was “nearly gone”. For the same compound, the “fibrils seen by electron microscopy (qualitative)” value ([4]; tau fibrils treated with each compound) was “Few fibrils”.
